From US20100190706A1, “Stable Non-Aqueous Pharmaceutical Compositions” (NOVO NORDISK A/S, priority 2007, published 2010)
Where two headings read alike, the source gives them in different places.

How the values were obtained:
[1] = Isoelectric point (pI) of the insulinotropic peptide; assay type: physicochemical
Excerpt: The pI of a protein can be determined experimentally by electrophoresis techniques such as electrofocusing:
A pH gradient is established in an anticonvective medium, such as a polyacrylamide gel. When a protein is introduced in to the system it will migrate under influence of an electric field applied across the gel. Positive charged proteins will migrate to the cathode. Eventually, the migrating protein reaches a point in the pH gradient where its net electrical charge is zero and is said to be focused. This is the isoelectric pH (pI) of the protein. The protein is then fixed on the gel and stained. The pI of the protein can then be determined by comparison of the position of the protein on the gel relative to marker molecules with known pI values.

[2] = cited from earlier work
[3] = protic, very hydrophilic and polar solvents; lyophilized from aqueous solution of pH 6.0; cited from earlier work

Compound	Dielectricity constant, ε* ([2]; 293.2 Kelvin)	also measured
Arg34, Lys26(N∈-(γ-Glu(Na-hexadecanoyl)))-GLP-1(7-37)	–	pI [1]: 5.6
O [Water]	80.1	–
CO [Methanol]	33.0	–
CC(O)CCO (stereo not drawn) [1,3-butanediol]	28.8	–
OCCCO [1,3-propanediol]	35.1	–
CCO [Ethanol]	25.3	–
CC(C)O [Isopropanol]	20.18	–
lysozyme: lysozyme lyophilized from aqueous solution of pH 6.0 (Klibanov et al)	–	solubility [3]: more than 10 mg/ml
CC(O)CO (stereo not drawn) [1,2-propanediol [propylene glycol], 1,2-propanediol]	–	Dielectricity constant, ε* ([2]; 303.2 Kelvin): 27.5
